According to US9605027B2, “Polypeptides that bound to IL-23 receptor and inhibit binding of IL-23 and cell signaling thereof” (Medical Diagnostic Laboratories, LLC, priority 2011, dated 2017):
“Also recorded” adds a separate entry of the source. Read-outs that look alike come from different tables or passages of the source. Peptide text beside a SMILES is read from it.

Columns and labels:
[1] = biological target: IL-23R pathway in STAT3-Luc reporter DB cells (Homo sapiens, UniProt Q5VWK5); assay: Cell-based STAT3-Luc reporter DB cell assay (DB-Luc), inhibition of IL-23
Sequence of IL-23R pathway in STAT3-Luc reporter DB cells (Q5VWK5 24-629 limits assumed): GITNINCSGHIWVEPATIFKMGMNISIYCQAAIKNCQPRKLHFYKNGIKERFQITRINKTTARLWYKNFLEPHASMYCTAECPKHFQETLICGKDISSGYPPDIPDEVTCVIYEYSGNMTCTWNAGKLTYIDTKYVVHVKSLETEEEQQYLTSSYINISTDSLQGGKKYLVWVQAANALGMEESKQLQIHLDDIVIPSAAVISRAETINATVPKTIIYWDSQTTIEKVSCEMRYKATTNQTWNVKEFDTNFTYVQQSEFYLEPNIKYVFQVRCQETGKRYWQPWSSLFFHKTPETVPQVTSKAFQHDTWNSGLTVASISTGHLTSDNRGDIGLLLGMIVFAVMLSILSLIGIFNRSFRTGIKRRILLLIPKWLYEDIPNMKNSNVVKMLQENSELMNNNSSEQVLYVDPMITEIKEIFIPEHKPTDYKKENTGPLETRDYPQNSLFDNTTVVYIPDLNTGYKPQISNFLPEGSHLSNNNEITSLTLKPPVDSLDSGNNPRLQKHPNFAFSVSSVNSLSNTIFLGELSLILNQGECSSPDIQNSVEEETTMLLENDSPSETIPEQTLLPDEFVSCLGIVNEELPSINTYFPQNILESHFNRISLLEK
Protocol: (§1) The Cignal STAT3 reporter (SA Biosciences, CCS-9028L), designed to measure the transcriptional activity of STAT3 homodimers, was transiently transfected into the DB cells. The stably transfected STAT3-Luc reporter clone was selected using 200 ng/ml of Hygromycin B.
The stably transfected STAT3-Luc reporter DB cells (0.5×10^6) were cultured in 100 μl of RPMI+10% FBS. IL-23 was added to the cells and incubated at 37° C. for 4 hours. Luciferase activity was measured using Dual-Glo luciferase assay system (Promega).
The isolated cyclic polypeptide no. 23.15-Fc fusion protein and cyclic polypeptide no. 23.19 were used in a cell-based assay to measure the IC50 values. The stably transfected STAT3-Luc reporter DB cells (0.5×10^6) were cultured in 100 μl of RPMI+10% FBS. The cells were pre-incubated with different concentration of isolated cyclic polypeptide no. 23.15-Fc fusion protein or polypeptide no. 23.19 for 30 minutes at 37° C. 50 ng/ml of IL-23 was added to the cells and incubated at 37° C. for an additional 4 hours. Luciferase activity was measured using Dual-Glo luciferase assay system (Promega). The IC50 values of isolated cyclic polypeptide no. 23.15-Fc fusion protein and cyclic polypeptide no. 23.19 are 2.5 μM and 2.5 μM respectively.
The isolated peptide no. 7 (SEQ ID NO: 156) and peptide no. 23.19 (SEQ ID NO: 130) (it is a cyclic version of the polypeptide no. 23.15) were used in a cell based assay to compare their inhibitory activity. The stably transfected STAT3-Luc reporter DB cells (0.5×10^6) were cultured in 100 μl of RPMI+10% FBS. The cells were pre-incubated with two different concentrations (10 μM and 2 μM) of isolated peptides for 30 minutes at 37° C. 50 ng/ml of IL-23 was added to the cells and incubated at 37° C. for an additional 4 hours. Luciferase activity was measured using Dual-Glo luciferase assay system (Promega). The inhibitory activity of isolated peptide no. 7 (SEQ ID NO: 156) is better than that of peptide no. 23.19 (SEQ ID NO: 130) (a cyclic version of polypeptide no. 23.15 (SEQ ID NO: 126) (See, FIG. 62).
DB cells express IL-23R on the cell surface. In addition, IL-23 stimulated the DB cells through the activation of STAT3 by phosphorylation (p-STAT3) (Example 7 (Figures. 14 and 15)). Based on these observations, DB cells were used to develop a cell-based assay to measure the inhibitory activity of peptide and peptide-Fc fusion protein in the IL-23R pathway. […]
as §1, with “CCS-9028L), which is” for “CCS-9028L),”, “B. The activity of IL-23R pathway can be measured by the transcriptional activity of STAT3 homodimers. […]” for “B.”

[2] = tested on: IL-23 induced IL-17F production in human Th17 cells; assay: IL-17F production induced by IL-23 in in vitro differentiated human Th17 cells; format: cell-based; conditions: IL-23 1 ng/ml, peptide 0-10 μM, ELISA; read-out: IC50, inhibition of IL-17F production
Protocol: To that end, we designed and performed an in vitro assay using human differentiated Th17 cells. CD4+ naive T cells were negatively enriched using a human CD4+ naive T cells enrichment kit (StemCell Technologies, Catalog #19155). The purity of enriched CD4+ naive T cells was determined by FACS analysis. 1×10^6 cells/ml of CD4+ naive T cells were differentiated into Th17 cells under Th17 culture condition (CD3/28 beads, 10 ng/ml of IL-1β, 10 ng/ml of IL-6, 10 ng/ml of IL-23 and 1 ng/ml of TGF-β) for 5 days. All cytokines were purchased from Humanzyme. The CD3/28 beads were used according to the manufacturer's instructions (Miltenyi Biotec). Differentiation of Th17 cells was confirmed by the production of IL-17F using ELISA.
Experiments were performed where cyclic peptide no. 2HT AA (SEQ ID NO: 177) was added to the differentiated Th17 cells 30 minutes before the addition of IL-23 cytokine Th17 cells were stimulated for 2 days. Ionomycin (1 μg/ml)/PMA (50 ng/ml) (BD biosciences, San Jose, Calif.) were added to the stimulated cells 4 hours before the collection of media to measure the IL-17F production by ELISA (Catalog #88-7478, eBioscience, San Diego, Calif.). […]
CD4+ naive T cells were negatively enriched using human CD4+ naive T cells enrichment kit (StemCell Technologies, Catalog #19155). The purity of naive T cells was measured by FACS analysis. […]

## CSCC[C@@H]1NC(=O)[C@H](C)NC(=O)[C@@H](N)CSSC[C@@H](C(=O)O)NC(=O)[C@H](CCCNC(=N)N)NC(=O)CNC(=O)[C@H](Cc2ccc(O)cc2)NC(=O)[C@H](CC(C)C)NC(=O)[C@H](Cc2c[nH]c3ccccc23)NC(=O)[C@H](Cc2ccc(O)cc2)NC(=O)[C@H](CC(=O)O)NC(=O)[C@H](CCC(N)=O)NC(=O)[C@H](Cc2c[nH]c3ccccc23)NC(=O)[C@H]([C@@H](C)O)NC1=O [23.19]
[1]; 50 ng/ml IL-23, 4 hours, read-out: IC50, cell-based STAT3-Luc assay
  IC50: 2500 nM

## CSCC[C@@H]1NC(=O)[C@H](CCCCN)NC(=O)[C@H](C)NC(=O)[C@H](C)NC(=O)[C@H](CS)NC(=O)[C@H](CC(N)=O)NC(=O)[C@H](CCCCN)NC(=O)[C@H](CC(C)C)NC(=O)[C@H](Cc2c[nH]c3ccccc23)NC(=O)[C@H](Cc2ccc(O)cc2)NC(=O)[C@H](CC(=O)O)NC(=O)[C@H](C(C)C)NC(=O)[C@H](Cc2c[nH]c3ccccc23)NC(=O)[C@H]([C@@H](C)O)NC1=O [2HT AA] (cyclo(AAKMTWVDYWLKNC))
[1]; cyclic vs linear peptides
  inhibitory activity in cell-based DB-Luc assay: did not eliminate the inhibitory activity; also recorded: best inhibitory activity
[1]; procedure of Example 29, read-out: IC50, cell-based DB-Luc assay
  IC50: 342 nM
[2]
  IC50: 339 nM
